Experimental data as given in US11439657B2, “Cancer stem cell growth inhibitor using miRNA” (CancerStem Tech Inc., priority 2017, dated 2022).
Entries after “also recorded” stand apart in the source; their conditions may differ.

Assays:
[1] = system: cancer stem cell population (ZsGreen+) established from pancreatic cancer cell line Panc-1; experiment: Screening of miRNAs: cell count (cell viability) of the cancer stem cell population after transfection; format: cell-based, human; conditions: miRNA 10 pmol/well, lipofectamin 2000, cells counted 48 and 72 hours later, FIG. 4
From the text: A cancer stem cell line was established by transducing a pancreatic cancer cell line (Panc-1) with an ODC (Ornithine Decarboxylase)-Degron system capable of visualizing low metabolism that is a property of cancer stem cells using a retrovirus vector (FIG. 1a). The base sequence coding the used ODC-Degron is as set forth in SEQ ID NO: 10. Usually, cancer stem cells are so 26s proteasome hypometabolic that they cannot degrade the introduced fluorescently labeled Ornithine Decarboxylase Degron, and thus the fluorescent protein sufficiently accumulates to provide visualization.
However, even when the ODC-degron system was introduced into the pancreatic cancer cell line Panc-1, only about 0.06% cells emitting fluorescence (green) were obtained in total. With such a small number of cancer stem cells, a series of experiments including drug screening cannot be performed. Accordingly, further enrichment of cancer stem cells provided a cancer stem cell population in which cells having observed fluorescent coloring (i.e., cancer stem cells) accounted for about 81.18% in total (FIG. 1b). The obtained cancer stem cell population was designated as ZsGreen+.
A cell suspension prepared by suspending the cancer stem cell population (ZsGreen+) in a medium (DMEM medium containing 10% by volume FBS) was seeded in each well of a 24-well plate at a density of 5000 to 10000 cells/well, followed by culture at 37° C. overnight. Thereafter, according to the lipofectamin 2000 protocol, each miRNA was transfected at 10 pmol/well, and 48 hours and 72 hours later, the cells were counted. In addition, tests were also conducted under the same condition on a case where the miRNA was not introduced (untreated group, control), a case where has-miR-34a (SEQ ID NO: 8) was used (positive control) in place of the selected miRNA, and a case where a control miRNA (SEQ ID NO: 9) was used (NC1, negative control) in place of the selected miRNA. In addition, for comparison, the non-cancer stem cell population (ZsGreen−) was used in place of the cancer stem cell population (ZsGreen+) to conduct tests under the same condition.
The ratio of the number of cells under each condition to the number of control cells into which the miRNA was not introduced (cell viability, %) was determined.

[2] = system: human large bowel cancer cells (DLD1 line); experiment: Antitumor effect on human large bowel cancer cells, cell count after transfection; format: cell-based; conditions: 10 pmol/well, FIG. 11; for antitumor effect: 72 hours, positive control hsa-miR-34a; for proliferation inhibitory effect on large bowel cancer cells: cells counted 72 hours after transfection
Description: (§1) A cell suspension prepared by suspending human pancreatic cancer cells (Bxpc3 line) in D-MEM medium (containing 10% by volume FBS) was seeded in each well of a 24-well plate at 3×10^3 cells/well, followed by culture at 37° C. overnight. Thereafter, according to the lipofectamin 2000 protocol, each miRNA was transfected at 10 pmol/well, and 48 hours later, the cells were counted. In addition, tests were also conducted under the same condition on a case where the miRNA was not introduced (untreated group), a case where hsa-miR-34a (SEQ ID NO: 8) was used (positive control) in place of the miRNA, and a case where a control miRNA (SEQ ID NO: 9) was used (control miRNA, negative control) in place of the selected miRNA.
As to hsa-miR-136-5p, hsa-miR-3065-3p, hsa-miR-4727-5p, hsa-miR-378g, hsa-miR-181a-5p, hsa-miR-362-5p and hsa-miR-608, evaluation was performed of the antitumor effect on human large bowel cancer cells. The specific test method is the same as that for Test Example 4 except that human large bowel cancer cells (DLD1 line) were used as cancer cells, and that the cells were counted 72 hours after transfection.

[3] = system: human esophageal cancer cells (TE11 line); experiment: Antitumor effect on human esophageal cancer cells, cell count after transfection; format: cell-based; conditions: 10 pmol/well, FIG. 12; for antitumor effect: 72 hours, positive control hsa-miR-34a; for proliferation inhibitory effect on esophageal cancer cells: cells counted 72 hours after transfection
Description: as §1
As to hsa-miR-136-5p, hsa-miR-3065-3p, hsa-miR-4727-5p, hsa-miR-378g and hsa-miR-181a-5p, evaluation was performed of the antitumor effect on human esophageal cancer cells. The specific test method is the same as that for Test Example 4 except that human esophageal cancer cells (TE11 line) were used as cancer cells, and that the cells were counted 72 hours after transfection.

[4] = system: human pancreatic cancer cells (Bxpc3 line); experiment: Antitumor effect on human pancreatic cancer cells (1), cell count after transfection; format: cell-based; conditions: 10 pmol/well, FIG. 8; for antitumor effect: 48 hours, positive control hsa-miR-34a; for proliferation inhibitory effect on pancreatic cancer cells: cells counted 48 hours later
Description: as §1

Row | Substance | proliferation inhibitory effect on cancer stem cells (cell viability) [1] | antitumor effect [2] | proliferation inhibitory effect on large bowel cancer cells [2] | antitumor effect [3] | proliferation inhibitory effect on esophageal cancer cells [3] | antitumor effect [4] | proliferation inhibitory effect on pancreatic cancer cells [4]
1 | hsa-miR-362-5p: human-derived miR-362-5p; base sequence set forth in SEQ ID NO: 6 as mature miRNA (AAUCCUUGGAACCUAGGUGUGAGU; listed as RNA, chemistry not given here; listed as Homo sapiens) | effectively suppress proliferation of cancer stem cells; also recorded: prominent proliferation inhibitory effect | much better antitumor effect than that of hsa-miR-34a; also recorded: particularly remarkable antitumor effect | strong proliferation inhibitory effect | – | – | – | –
2 | hsa-miR-608: human-derived miR-608; base sequence set forth in SEQ ID NO: 7 as mature miRNA (AGGGGUGGUGUUGGGACAGCUCCGU; listed as RNA, chemistry not given here; listed as Homo sapiens) | effectively suppress proliferation of cancer stem cells; also recorded: prominent proliferation inhibitory effect | much better antitumor effect than that of hsa-miR-34a; also recorded: particularly remarkable antitumor effect | strong proliferation inhibitory effect | – | – | – | –
3 | has-miR-34a: positive control miRNA (SEQ ID NO: 8), conventionally considered to have the highest therapeutic effect on solid tumor (UGGCAGUGUCUUAGCUGGUUGU; listed as RNA, chemistry not given here; listed as Homo sapiens) [reference compound] | not sufficient | – | – | – | – | – | –
4 | hsa-miR-378g: human-derived miR-378g; base sequence set forth in SEQ ID NO: 4 as mature miRNA (ACUGGGCUUGGAGUCAGAAG; listed as RNA, chemistry not given here; listed as Homo sapiens) | effectively suppress proliferation of cancer stem cells | much better antitumor effect than that of hsa-miR-34a | strong proliferation inhibitory effect | much better antitumor effect than that of hsa-miR-34a | strong proliferation inhibitory effect | much better antitumor effect than that of hsa-miR-34a | strong proliferation inhibitory effect
5 | hsa-miR-4727-5p: human-derived miR-4727-5p; base sequence set forth in SEQ ID NO: 3 as mature miRNA (AUCUGCCAGCUUCCACAGUGG; listed as RNA, chemistry not given here; listed as Homo sapiens) | effectively suppress proliferation of cancer stem cells | much better antitumor effect than that of hsa-miR-34a | strong proliferation inhibitory effect | much better antitumor effect than that of hsa-miR-34a | strong proliferation inhibitory effect | much better antitumor effect than that of hsa-miR-34a | strong proliferation inhibitory effect
